Data taken from the NIST ThermoML archive (doi:10.1021/je700339f).

Assay: xn = mol fraction of the nth substance listed
Conditions: 298 K, Liquid

ClCCCCCCCl [1,6-dichlorohexane] + CN(C)C=O
mass density [kg/m3]
Conditions | x2 = 0.0986 | x2 = 0.2013 | x2 = 0.3197 | x2 = 0.4014 | x2 = 0.5033 | x2 = 0.6037 | x2 = 0.7034 | x2 = 0.8019 | x2 = 0.9008
100 kPa | 1056.4 | 1048.6 | 1038.2 | 1030.1 | 1019 | 1007.3 | 994.3 | 980 | 963.6
500 kPa | 1056.6 | 1048.8 | 1038.4 | 1030.3 | 1019.3 | 1007.6 | 994.6 | 980.3 | 963.9
1000 kPa | – | 1049.2 | 1038.8 | 1030.7 | 1019.6 | 1007.9 | 995 | 980.6 | 964.2
1100 kPa | 1057.1 | – | – | – | – | – | – | – | –
1500 kPa | 1057.3 | 1049.6 | 1039.2 | 1031.1 | 1020 | 1008.2 | 995.3 | 980.9 | 964.5
2000 kPa | 1057.7 | 1049.9 | 1039.5 | 1031.4 | 1020.3 | 1008.6 | 995.6 | 981.3 | 964.8
2500 kPa | 1058 | 1050.2 | 1039.8 | 1031.7 | 1020.7 | 1008.9 | 995.9 | 981.6 | 965.1
2900 kPa | – | – | – | – | 1021 | – | – | – | –
3000 kPa | 1058.4 | 1050.6 | 1040.2 | 1032.1 | – | 1009.2 | 996.3 | 981.9 | 965.4
3500 kPa | 1058.7 | 1050.9 | 1040.5 | 1032.4 | 1021.3 | 1009.6 | 996.6 | 982.2 | 965.8
4000 kPa | 1059.1 | 1051.3 | 1040.8 | 1032.8 | 1021.7 | 1009.9 | 996.9 | 982.6 | 966.1
4500 kPa | 1059.4 | 1051.6 | 1041.2 | 1033.2 | 1022 | 1010.2 | 997.2 | 982.9 | 966.4
4900 kPa | – | – | – | – | – | – | – | 983.2 | –
5000 kPa | 1059.8 | 1052 | 1041.5 | 1033.4 | 1022.3 | 1010.5 | 997.5 | – | 966.7
5500 kPa | 1060.1 | 1052.3 | 1041.8 | 1033.8 | 1022.6 | 1010.9 | 997.8 | 983.5 | 967
5900 kPa | – | – | – | – | – | 1011.2 | – | – | –
6000 kPa | 1060.4 | 1052.6 | 1042.2 | 1034.2 | 1023 | – | 998.2 | 983.9 | 967.3
6400 kPa | – | – | – | – | – | – | – | 984.2 | –
6500 kPa | 1060.8 | 1053 | 1042.6 | 1034.5 | 1023.3 | 1011.5 | 998.5 | – | 967.7
6900 kPa | – | – | – | 1034.8 | – | – | – | – | 967.8
7000 kPa | 1061.1 | 1053.3 | 1042.9 | – | 1023.7 | 1011.9 | 998.8 | 984.5 | –
7400 kPa | – | – | – | 1035.1 | – | – | – | – | –
7500 kPa | 1061.5 | 1053.7 | 1043.2 | – | 1024 | 1012.2 | 999.1 | 984.8 | 968.2
7900 kPa | 1061.8 | – | – | – | – | – | – | – | –
8000 kPa | – | 1054 | 1043.5 | 1035.5 | 1024.4 | 1012.6 | 999.5 | 985.1 | 968.5
8400 kPa | – | – | – | – | – | 1012.8 | – | 985.4 | 968.8
8500 kPa | 1062.2 | 1054.4 | 1043.8 | 1035.8 | 1024.6 | – | 999.8 | – | –
8900 kPa | – | – | – | – | – | 1013.1 | – | – | –
9000 kPa | 1062.5 | 1054.7 | 1044.2 | 1036.1 | 1025 | – | 1000.1 | 985.8 | 969.1
9400 kPa | – | – | – | – | – | – | – | – | 969.4
9500 kPa | 1062.8 | 1055.1 | 1044.5 | 1036.5 | 1025.3 | 1013.5 | 1000.4 | 986.1 | –
10000 kPa | 1063.1 | 1055.5 | 1044.9 | 1036.9 | 1025.7 | 1013.9 | 1000.8 | 986.4 | 969.8
10400 kPa | – | – | – | – | – | – | – | 986.7 | 969.9
10500 kPa | 1063.5 | 1055.8 | 1045.3 | 1037.2 | 1026 | 1014.2 | 1001.1 | – | –
10900 kPa | 1063.8 | – | – | – | – | – | – | 987 | –
11000 kPa | – | 1056.1 | 1045.5 | 1037.5 | 1026.4 | 1014.5 | 1001.4 | – | 970.3
11400 kPa | – | – | 1045.8 | – | – | 1014.8 | – | – | –
11500 kPa | 1064.2 | 1056.4 | – | 1037.8 | 1026.7 | – | 1001.8 | 987.4 | 970.5
11900 kPa | – | – | – | – | – | 1015.1 | – | – | –
12000 kPa | 1064.5 | 1056.8 | 1046.2 | 1038.2 | 1027 | – | 1002 | 987.6 | 970.8
12400 kPa | – | – | – | – | – | 1015.4 | – | – | 971.1
12500 kPa | 1064.9 | 1057.1 | 1046.5 | 1038.4 | 1027.3 | – | 1002.4 | 988 | –
12900 kPa | 1065.2 | – | – | 1038.8 | – | – | – | – | –
13000 kPa | – | 1057.4 | 1046.8 | – | 1027.6 | 1016 | 1002.7 | 988.2 | 971.3
13500 kPa | 1065.5 | 1057.8 | 1047.2 | 1039.2 | 1028 | 1016.3 | 1003 | 988.6 | 971.6
13900 kPa | – | – | – | 1039.5 | – | – | – | – | –
14000 kPa | 1065.8 | 1058.1 | 1047.5 | – | 1028.3 | 1016.6 | 1003.3 | 989 | 971.9
14400 kPa | – | – | – | – | – | 1016.8 | – | – | –
14500 kPa | – | 1058.4 | 1047.8 | 1039.8 | 1028.6 | – | 1003.5 | 989.2 | 972.2
14600 kPa | 1066.2 | – | – | – | – | – | – | – | –
15000 kPa | 1066.5 | 1058.7 | 1048.2 | 1040 | 1028.9 | 1017.3 | 1003.9 | 989.5 | 972.6
15400 kPa | – | – | – | – | 1029.2 | 1017.6 | – | – | –
15500 kPa | 1066.9 | 1059 | 1048.6 | 1040.4 | – | – | 1004.2 | 989.8 | 972.8
15900 kPa | – | 1059.3 | – | 1040.7 | – | – | – | 990.1 | –
16000 kPa | 1067.1 | – | 1048.8 | – | 1029.6 | 1018 | 1004.5 | – | 973.1
16400 kPa | – | 1059.6 | – | 1041 | – | – | – | – | –
16500 kPa | 1067.4 | – | 1049 | – | 1030 | 1018.2 | 1004.8 | 990.4 | 973.4
17000 kPa | 1067.8 | 1060 | 1049.4 | 1041.4 | 1030.3 | 1018.5 | 1005.1 | 990.7 | 973.7
17500 kPa | 1068.2 | 1060.3 | 1049.7 | 1041.7 | 1030.5 | 1018.8 | 1005.4 | 990.9 | 974
17900 kPa | – | – | 1050 | – | – | – | – | 991.2 | –
18000 kPa | 1068.5 | 1060.6 | – | 1042 | 1030.9 | 1019.1 | 1005.6 | – | 974.3
18500 kPa | 1068.8 | 1060.9 | 1050.3 | 1042.3 | 1031.2 | 1019.4 | 1005.9 | 991.5 | 974.7
19000 kPa | 1069.2 | 1061.2 | 1050.7 | 1042.6 | 1031.5 | 1019.8 | 1006.3 | 991.9 | 975.1
19400 kPa | – | 1061.5 | – | – | – | – | – | – | –
19500 kPa | 1069.5 | – | 1051 | 1042.9 | 1031.8 | 1020.1 | 1006.6 | 992.2 | 975.4
20000 kPa | 1069.8 | 1062 | 1051.5 | 1043.2 | 1032.2 | 1020.5 | 1007 | 992.5 | 975.8
